Assay results taken from patent US9833497B2, “Human originated EGF domain proteins and use of the same” (CHENGDU SOURCEBIO LIMITED-LIABILITY COMPANY, priority 2013, dated 2017).

Legend:
Assay type in all cases: cell-based
Klebsiella pneumonia = test: MIC against Gram-negative bacteria: Klebsiella pneumonia; details: 5×10^5 CFU/mL
Summary of the method: (§1)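 The recombinant human-originated EGF domain proteins were serially diluted two-fold against bacteria at 5×10^5 CFU/mL in LB medium. After shaken incubation at 37° C, the lowest concentration with no bacterial growth was recorded as the MIC.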

Citrobacter diversus = test: MIC against Gram-negative bacteria: Citrobacter diversus; details: 5×10^5 CFU/mL
Summary of the method: as §1

Pseudomonas aeruginosa = test: MIC against Gram-negative bacteria: Pseudomonas aeruginosa; details: 5×10^5 CFU/mL
Summary of the method: as §1

Enterobacter cloacae = test: MIC against Gram-negative bacteria: Enterobacter cloacae; details: 5×10^5 CFU/mL
Summary of the method: as §1

Moraxella catarrhalis = test: MIC against Gram-negative bacteria: Moraxella catarrhalis; details: 5×10^5 CFU/mL
Summary of the method: as §1

E. coli DH5α = test: Antibacterial activity: MIC and growth curve against E. coli DH5α in 96-well plate; details: minimal inhibitory concentration against E. coli DH5α; 96-well plate, 5×10^5 CFU/mL, 37° C., judged after 8 h
Summary of the method: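 Log-phase bacteria (OD600 ~0.5) resuspended in LB at 5×10^5 CFU/mL, exposed to recombinant protein at 50, 25, 12.5 μg/mL final in triplicate, 37 °C shaking at 175 rpm. OD600 read every 30 min; MIC is lowest concentration showing no growth.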

E. coli BL21 = test: MIC against Gram-negative bacteria: E. coli BL21; details: 5×10^5 CFU/mL
Summary of the method: as §1

Proteus mirabilis = test: MIC against Gram-negative bacteria: Proteus mirabilis; details: 5×10^5 CFU/mL
Summary of the method: as §1

Proteus vulgaris = test: MIC against Gram-negative bacteria: Proteus vulgaris; details: 5×10^5 CFU/mL
Summary of the method: as §1

Serratia marcescens = test: MIC against Gram-negative bacteria: Serratia marcescens; details: 5×10^5 CFU/mL
Summary of the method: as §1

Aeromonas hydrophila = test: MIC against Gram-negative bacteria: Aeromonas hydrophila; details: 5×10^5 CFU/mL
Summary of the method: as §1

[1] = K. pneumonia, 10 h cultivation at 37° C.
[2] = C. diversus, 10 h cultivation at 37° C.
[3] = P. aeruginosa, 10 h cultivation at 37° C.
[4] = E. cloacae, 10 h cultivation at 37° C.
[5] = M. catarrhalis, 10 h cultivation at 37° C.
[6] = E. coli BL21, 10 h cultivation at 37° C.
[7] = P. mirabilis, 10 h cultivation at 37° C.
[8] = P. vulgaris, 10 h cultivation at 37° C.
[9] = S. marcescens, 10 h cultivation at 37° C.
[10] = A. hydrophila, 10 h cultivation at 37° C.
[11] = Klebsiella pneumonia, 96-well plate, 37° C., 10 h
[12] = Citrobacter diversus, 96-well plate, 37° C., 10 h
[13] = Pseudomonas aeruginosa, 96-well plate, 37° C., 10 h
[14] = Enterobacter cloacae, 96-well plate, 37° C., 10 h
[15] = Moraxella catarrhalis, 96-well plate, 37° C., 10 h
[16] = E. coli BL21, 96-well plate, 37° C., 10 h
[17] = Proteus mirabilis, 96-well plate, 37° C., 10 h
[18] = Proteus vulgaris, 96-well plate, 37° C., 10 h
[19] = Serratia marcescens, 96-well plate, 37° C., 10 h
[20] = Aeromonas hydrophila, 96-well plate, 37° C., 10 h

Row | Substance | MIC (μg/mL) K. pneumonia (Klebsiella pneumonia; [1]) | MIC (μg/mL) C. diversus (Citrobacter diversus; [2]) | MIC (μg/mL) P. aeruginosa (Pseudomonas aeruginosa; [3]) | MIC (μg/mL) E. cloacae (Enterobacter cloacae; [4]) | MIC (μg/mL) M. catarrhalis (Moraxella catarrhalis; [5]) | MIC (E. coli DH5α) | MIC (μg/mL) E. coli BL21 (E. coli BL21; [6]) | MIC (μg/mL) P. mirabilis (Proteus mirabilis; [7]) | MIC (μg/mL) P. vulgaris (Proteus vulgaris; [8]) | MIC (μg/mL) S. marcescens (Serratia marcescens; [9]) | MIC (μg/mL) A. hydrophila (Aeromonas hydrophila; [10]) | other results
1 | PRT873 (CECYGHSNRCSYIDFLNVVTCVSCKHNTRGQHCQHCRLGYYRNGSAELDDENVCIE; listed as Homo sapiens) | 25 µg/mL | 25 µg/mL | 12.5 µg/mL | 25 µg/mL | 12.5 µg/mL | 12.5 µg/mL | 50 µg/mL | 25 µg/mL | 50 µg/mL | 12.5 µg/mL | 50 µg/mL | 
2 | PRT168 (CLPGCDEQHGFCDKPGECKCRVGWQGRYC; listed as Homo sapiens) | 25 µg/mL | 12.5 µg/mL | 12.5 µg/mL | 12.5 µg/mL | 50 µg/mL | 25 µg/mL | 25 µg/mL | 12.5 µg/mL | 50 µg/mL | 12.5 µg/mL | 50 µg/mL | 
3 | PRT1274 (DVDECAEGNGGCQQSCVNMMGSYECHCREGFFLSDNQ; listed as Homo sapiens) |  |  |  |  |  | 12.5 µg/mL |  |  |  |  |  | MIC against K. pneumonia (Klebsiella pneumonia; [11]): 50 µg/mL; MIC against C. diversus (Citrobacter diversus; [12]): 25 µg/mL; MIC against P. aeruginosa (Pseudomonas aeruginosa; [13]): 12.5 µg/mL; MIC against E. cloacae (Enterobacter cloacae; [14]): 12.5 µg/mL; MIC against M. catarrhalis (Moraxella catarrhalis; [15]): 12.5 µg/mL; MIC against E. coli BL21 (E. coli BL21; [16]): 50 µg/mL; MIC against P. mirabilis (Proteus mirabilis; [17]): 25 µg/mL; MIC against P. vulgaris (Proteus vulgaris; [18]): 50 µg/mL; MIC against S. marcescens (Serratia marcescens; [19]): 25 µg/mL; MIC against A. hydrophila (Aeromonas hydrophila; [20]): 50 µg/mL
4 | PRT744 (GWNECASSNGHCSHLCLAVPVGGFVCGCPAHYSLNADNRTCS; listed as Homo sapiens) | 50 µg/mL | 12.5 µg/mL | 12.5 µg/mL | 12.5 µg/mL | 50 µg/mL | 12.5 µg/mL | 50 µg/mL | 25 µg/mL | 25 µg/mL | 12.5 µg/mL | 50 µg/mL | 
5 | PRT455 (DVNECSQENGGCLQICHNKPGSFHCSCHSGFELSSDGRTCQ; listed as Homo sapiens) |  |  |  |  |  | 50 µg/mL |  |  |  |  |  | MIC against K. pneumonia (Klebsiella pneumonia; 96-well plate, 37° C., 10 h): 12.5 µg/mL; MIC against C. diversus (Citrobacter diversus; 96-well plate, 37° C., 10 h): 50 µg/mL; MIC against P. aeruginosa (Pseudomonas aeruginosa; 96-well plate, 37° C., 10 h): 50 µg/mL; MIC against E. cloacae (Enterobacter cloacae; 96-well plate, 37° C., 10 h): 50 µg/mL; MIC against M. catarrhalis (Moraxella catarrhalis; 96-well plate, 37° C., 10 h): 12.5 µg/mL; MIC against E. coli BL21 (E. coli BL21; 96-well plate, 37° C., 10 h): 12.5 µg/mL; MIC against P. mirabilis (Proteus mirabilis; 96-well plate, 37° C., 10 h): 50 µg/mL; MIC against P. vulgaris (Proteus vulgaris; 96-well plate, 37° C., 10 h): 100 µg/mL; MIC against S. marcescens (Serratia marcescens; 96-well plate, 37° C., 10 h): 50 µg/mL; MIC against A. hydrophila (Aeromonas hydrophila; 96-well plate, 37° C., 10 h): 12.5 µg/mL
6 | PRT21 (NCATPCTEGCECNQGFVLSTSQCV; listed as Homo sapiens) |  |  |  |  |  | 25 µg/mL |  |  |  |  |  | MIC (μg/mL) K. pneumonia (Klebsiella pneumonia; [11]): 25 µg/mL; MIC (μg/mL) C. diversus (Citrobacter diversus; [12]): 25 µg/mL; MIC (μg/mL) P. aeruginosa (Pseudomonas aeruginosa; [13]): 12.5 µg/mL; MIC (μg/mL) E. cloacae (Enterobacter cloacae; [14]): 50 µg/mL; MIC (μg/mL) M. catarrhalis (Moraxella catarrhalis; [15]): 12.5 µg/mL; MIC (μg/mL) E. coli BL21 (E. coli BL21; [16]): 50 µg/mL; MIC (μg/mL) P. mirabilis (Proteus mirabilis; [17]): 50 µg/mL; MIC (μg/mL) P. vulgaris (Proteus vulgaris; [18]): 25 µg/mL; MIC (μg/mL) S. marcescens (Serratia marcescens; [19]): 50 µg/mL; MIC (μg/mL) A. hydrophila (Aeromonas hydrophila; [20]): 12.5 µg/mL
7 | PRT213 (QNCTKTPCLPNAKCEIRNGIEACYCNMGFSGNGVTICE; listed as Homo sapiens) | 12.5 µg/mL | 50 µg/mL | 12.5 µg/mL | 50 µg/mL | 12.5 µg/mL | 12.5 µg/mL | 12.5 µg/mL | 25 µg/mL | 50 µg/mL | 25 µg/mL | 12.5 µg/mL | 
